Test results taken from patent US4288590A, “7 -[Dα-(4-Hydroxy-1,5-naphthyridine-3-carboxamido)-α-arylacetam ido]-3-(N,N-dimethyl-aminomethylpyridinium) methyl-3-cephem-4-carboxylates” (Bristol-Myers Company, priority 1980, dated 1981).
Counter-ions that a name gives are not always drawn.

Key:
S. aureus Smith A9537 [1] = assay: In vivo efficacy, experimental infection in mice; details: Staphylococcus aureus, SMITHA9537, in Mus musculus, im, 120 h, read-out: PD50 (median protective dose)
Description: (§2) The mice were treated with test compound by im route immediately after the bacterial challenge.

S. aureus BX-1633 A9606 = assay: In vivo efficacy, experimental infection in mice; details: Staphylococcus aureus, BX1633A9606, in Mus musculus, im, 120 h, read-out: PD50 (median protective dose)
Description: as §2

E. cloacae = assay: In vitro activity, MIC of strain group (Table 2); type: cell-based; details: Enterobacter cloacae; Gn-II E. cloacae, 7 strains; read-out: Geometric mean of MIC
S. marcescens A20019 = assay: MIC, serial two-fold agar dilution (Table 1); type: cell-based; details: Serratia marcescens, Mueller-Hinton agar
Description: (§1) Minimum inhibitory concentrations (MIC) of BB-S 651, BB-S 669 and BB-S 676 were determined by serial two-fold agar dilution method using Steers' apparatus on Mueller-Hinton agar plate against 15 test organisms for primary screening as shown in Table 1.

E. coli A15164 = assay: MIC, serial two-fold agar dilution (Table 1); type: cell-based; details: Escherichia coli; E. coli A15164, cephalothin-resistant; Mueller-Hinton agar
Description: as §1

S. aureus #193 = assay: MIC, serial two-fold agar dilution (Table 1); type: cell-based; details: Staphylococcus aureus; S. aureus #193, penicillinase-producing; Mueller-Hinton agar; read-out: MIC
Description: as §1

S. aureus Smith A9537 [2] = assay: MIC, serial two-fold agar dilution (Table 1); type: cell-based; details: Staphylococcus aureus, SMITHA9537, Mueller-Hinton agar
Description: as §1

Ps. aeruginosa A15150 = assay: MIC, serial two-fold agar dilution (Table 1); type: cell-based; details: Pseudomonas aeruginosa, Mueller-Hinton agar
Description: as §1

E. cloacae A9656 = assay: MIC, serial two-fold agar dilution (Table 1); type: cell-based; details: Enterobacter cloacae, Mueller-Hinton agar
Description: as §1

E. coli A9660 = assay: MIC, serial two-fold agar dilution (Table 1); type: cell-based; details: Escherichia coli; E. coli A9660, cephalothin-sensitive; Mueller-Hinton agar
Description: as §1

Ps. aeruginosa A20718 = assay: MIC, serial two-fold agar dilution (Table 1); type: cell-based; details: Pseudomonas aeruginosa, Mueller-Hinton agar
Description: as §1

E. coli A15148 = assay: MIC, serial two-fold agar dilution (Table 1); type: cell-based; details: Escherichia coli; E. coli A15148, cephalothin-resistant; Mueller-Hinton agar
Description: as §1

Ps. aeruginosa A20717 = assay: MIC, serial two-fold agar dilution (Table 1); type: cell-based; details: Pseudomonas aeruginosa, Mueller-Hinton agar
Description: as §1

Ps. aeruginosa A9843 = assay: MIC, serial two-fold agar dilution (Table 1); type: cell-based; details: Pseudomonas aeruginosa, Mueller-Hinton agar
Description: as §1

Ps. aeruginosa A20229 = assay: MIC, serial two-fold agar dilution (Table 1); type: cell-based; details: Pseudomonas aeruginosa, Mueller-Hinton agar
Description: as §1

E. coli Juhl A15119 = assay: MIC, serial two-fold agar dilution (Table 1); type: cell-based; details: Escherichia coli, JUHLA15119; E. coli Juhl A15119, cephalothin-sensitive; Mueller-Hinton agar
Description: as §1

S. aureus 209P A9497 = assay: MIC, serial two-fold agar dilution (Table 1); type: cell-based; details: Staphylococcus aureus; S. aureus 209P A9497; Mueller-Hinton agar; read-out: MIC
Description: as §1

[3] = system: S. aureus BX-1633-2 A9606; assay: MIC, serial two-fold agar dilution (Table 1); type: cell-based; details: Staphylococcus aureus, BX16332A9606; S. aureus BX-1633-2 A9606, penicillinase-producing; Mueller-Hinton agar; read-out: MIC
Description: as §1

Indole(+) Proteus sp. = assay: In vitro activity, MIC of strain group (Table 2); type: cell-based; details: Gn-II Indole(+) Proteus sp., 8 strains; read-out: Geometric mean of MIC
Description: as §1

P. morganii A15153 = assay: In vivo efficacy, experimental infection in mice; details: Morganella morganii, A15153, in Mus musculus, im, 120 h, read-out: PD50 (median protective dose)
Description: as §2

SMILES | ED50 (S. aureus Smith A9537 [1]) [mg/kg] | ED50 (S. aureus BX-1633 A9606) [mg/kg] | MIC (E. cloacae) [µg/mL] | MIC (S. marcescens A20019) [µg/mL] | MIC (E. coli A15164) [µg/mL] | MIC (S. aureus #193) [µg/mL] | MIC (S. aureus Smith A9537 [2]) [µg/mL] | MIC (Ps. aeruginosa A15150) [µg/mL] | MIC (E. cloacae A9656) [µg/mL] | MIC (E. coli A9660) [µg/mL] | MIC (Ps. aeruginosa A20718) [µg/mL] | MIC (E. coli A15148) [µg/mL] | MIC (Ps. aeruginosa A20717) [µg/mL] | MIC (Ps. aeruginosa A9843) [µg/mL] | MIC (Ps. aeruginosa A20229) [µg/mL] | MIC (E. coli Juhl A15119) [µg/mL] | MIC (S. aureus 209P A9497) [µg/mL] | MIC [3] [µg/mL] | MIC (Indole(+) Proteus sp.) [µg/mL] | ED50 (P. morganii A15153) [mg/kg]
CN(C)Cc1ccc[n+](CC2=C(C(=O)[O-])N3C(=O)C(NC(=O)[C@H](NC(=O)c4cnc5cccnc5c4O)c4ccc(O)cc4)C3SC2)c1 (stereo partly drawn) [BB-S 651, 7-[D-α-(4-Hydroxy-1,5-naphthyridine-3-carboxamido)-α-(4-hydroxyphenyl)acetamido]-3-(3-N,N-dimethylaminomethylpyridinium)methyl-3-cephem-4-carboxylate Hydrochloride] | 1.1 | 6.3 | > 100 | 50 | 25 | 6.3 | 3.1 | 0.8 | 12.5 | 1.6 | 0.8 | 3.1 | 1.6 | 1.6 | 0.8 | 6.3 | 0.8 | 6.3 | > 100 | > 100
CCN1CCN(C(=O)N[C@@H](C(=O)N[C@@H]2C(=O)N3C(C(=O)O)=C(CSc4nnnn4C)CS[C@H]23)c2ccc(O)cc2)C(=O)C1=O [Cefoperazone, reference compound] | 2.4 | 1.6 |  |  |  |  |  |  |  |  |  |  |  |  |  |  |  |  | 3.5 | 6.3
